Series [1] in a line: In-vitro free radical scavenging activity using DPPH free radical. As to conditions: 30° C., 30 minutes, 515 nm. The source says:
Free Radical Scavenging Activity:
To determine the in-vitro free radical scavenging activity of compounds of general formula-I on 2,2,-diphenyl-1-picrylhydrazyl (DPPH)radical (Ref: W. Brand-Williams, M. E. Cuvelier, C. Berset “Use of a free radical method to evaluate antioxidant activity”, Lebensm.- Wiss.u.Technol.,1995,28,Nr.1:25-30).
To evaluate the free radical scavenging activity of compounds they are allowed to react with stable radical DPPH*. In its radical form, DPPH* absorbed at the characteristic wave length of 515 nm, but upon reduction by an antioxidant or radical scavenger (AH), the absorption disappears.
10^−4M solution of DPPH* was prepared in methanol.
Various concentrations (10 mM, 1 mM, 0.5 mM, 0.25 mM and 0.125 mM) of drug solutions were prepared in methanol.
900 μl of DPPH radical solution was added to an eppendorf tube. To it was added 100 μl of methanol.
900 μl of DPPH radical solution was added to an eppendorf tube. To it was added 100 μl of various concentrations of drug solutions in methanol.
The absorbance of control and test samples was recorded after incubation at 30° C. for 30 minutes, at 515 nm taking methanol as blank.
The percent antioxidant activity was calculated according to the formula:
% Antioxidant activity=100−[O.D of test sample/O.D of control*100]
Background: Loss of DPPH colour is used to gauge radical scavenging.

Series [2] deals with STZ induced diabetic rats. As to the kind of experiment: In vivo oral glucose tolerance study in nSTZ induced diabetic rats, i.v. drug. To be noted: 8 mg/ml/kg i.v. Here is the method:
In Vivo Oral Glucose Tolerance Studies
The anti-hyperglycemic effect of compound no. 95 (8 mg/ml/kg, i.v) after an oral glucose load of 1 gm/kg was studied in STZ induced diabetic rats (modified method of Balkan et al 1999).
Animals: Male STZ induced diabetic rats aged 10-12 weeks and weighing between 200-250 gm were used for the study. These rats were treated with streptozotocin administered intraperitoneally on the day of birth at a dose of 90 mg/kg. They were maintained under standard conditions till the age of 10-12 weeks when they were used for the study.
Materials: Glucose solution (1 gm/4 ml of saline), Diethyl ether compound no. 95 (8 mg/ml/kg), vehicle (1 ml/kg), Heparinized saline (100 IU/ml), glucometer and strips
Method: Animals were divided into two groups
Group I: 8 hours fasted rats were treated with compound no. 95 vehicle (1 ml/kg, i.v.) 5 min before administration of glucose load.
Group II: 8 hours fasted rats were treated with compound no. 95 (8 mg/ml/kg, i.v) 5 min before administration of glucose load.
In both groups, blood samples were taken before administration of vehicle/compound no. 95 and glucose load for blood glucose estimation. Blood glucose level before administration of compound no. 95 or its vehicle was considered as −5 min reading. Blood glucose level before administration of glucose was considered as 0 min reading.
After 10, 20, 30, 45, 60, 75, 90, 120, 150 and 180 min of glucose administration, blood glucose level was estimated by the glucose oxidase method using a LifeScan glucometer (Ca, USA). Blood glucose level at various time points was subtracted from the basal (0 min) reading. This was done to avoid changes in AUC because of variation in basal glucose level. The glucose excursion at various time points was plotted against time and the AUC was calculated.
The activity of compound no. 95 was expressed as % reduction in AUC as compared with that of its vehicle.

Another series concerns the target T1, Porcine DPP-IV (Sus scrofa, UniProt P22411).
T1 construct: purchased Sigma-Aldrich Germany
The experiment in a line: Assay of DPP-IV enzyme inhibitory activity (spectrophotometric, Gly-Pro-pNA cleavage). To be noted: Porcine DPP-IV, Gly-Pro-pNA substrate, 30° C., mean ± SD of three experiments except compound Nos. 133 & 139, read-out: IC50 (μM) Mean ± SD, inhibitory activity on DPP-IV enzyme activity. It is filed as biochemical.

Another series deals with nOSTZ diabetic rats. The experiment in a line: Oral glucose tolerance test in neonatal streptozotocin-induced (nOSTZ) diabetic rats, oral drug. It is filed as in vivo, Wistar rats. To be noted: 22 mg/kg oral; for percent change in blood glucose from basal glucose level / peak glucose levels (% from basal level): glucose load 1 g/kg; for peak glucose levels (% from basal level): significantly lower than vehicle (157.07±14.17%); for glucose tolerance (in words): nOSTZ rats. The source says:
Effect of Compound no. 140 and Compound no. 142 on Oral Glucose Tolerance in Neonatel Streptozotocin-Induced (nO STZ) Diabetic Rats
Principle of Glucose Estimation by Glucometer (One Touch, Lifescan, USA)
Glucose and oxygen react in the presence of glucose oxidase yielding gluconic acid and hydrogen peroxide. Hydrogen peroxide subsequently oxidizes the dyes in a reaction mediated by Peroxidase producing a blue colored form of the dyes (Marks and Dawson, 1965). The intensity of the blue color is proportional to the glucose concentration in the sample.
Wistar rats were made type 2 diabetic by injecting streptozotocin (STZ) at the dose of 90 mg/kg intraperitoneally on the day of birth (nOSTZ) to male pups (Portha et al, 2001). Animals showing overnight fasted blood glucose levels between 7-10 mM at the age of 10-12 weeks were used for the study. On the day of the experiment, animals were fasted overnight with free access to water.
Oral Glucose Tolerance Test (OGTT) (Pospisilik et al, 2002)
External jugular vein of overnight fasted nOSTZ rats was cannulated using polyethylene cannula with heparinized (100 IU/ml) saline under ether anesthesia and exteriorized at the back of the neck. After the animal was recovered from the anesthesia, blood sample was drawn as marked as ‘−5 min’ sample and drug formulation (in 0.5% sodium caboxymethyl cellulose, Na-CMC) was administered orally at the volume of 1 ml/kg body weight.
5 min after drug administration, blood sample was drawn as ‘0 min’ sample and glucose load at the dose of 1 g/kg body weight was administered orally. Blood samples were drawn subsequently at 5, 10, 15, 20, 30, 45, 60, 75, 90, 120, 180, 240 and 360 min time interval. Blood glucose is measured using glucometer.
Animals were divided into three groups: 1. Vehicle (0.5% Na-CMC) treated, 2. Compound no. 140 treated (22 mg/kg) and 3. Compound no. 142 treated (22 mg/kg).
Change in blood glucose at various time points was measured as percent increase or decrease from basal glucose level. Area under the curve (AUC) for glucose was calculated using WinNonlin software.

For orientation: melting point means the temperature of the solid-liquid transition. By IC50 is commonly meant the point on the concentration scale where inhibition reaches its midpoint.

“And” between values parts separate entries of the source, which are not always exact repeats. Identical values can stand only once. Counter-ions that a name gives are not always drawn. Like-named read-outs stand apart in the source and are kept apart here.

T1 sequence (P22411 whole entry): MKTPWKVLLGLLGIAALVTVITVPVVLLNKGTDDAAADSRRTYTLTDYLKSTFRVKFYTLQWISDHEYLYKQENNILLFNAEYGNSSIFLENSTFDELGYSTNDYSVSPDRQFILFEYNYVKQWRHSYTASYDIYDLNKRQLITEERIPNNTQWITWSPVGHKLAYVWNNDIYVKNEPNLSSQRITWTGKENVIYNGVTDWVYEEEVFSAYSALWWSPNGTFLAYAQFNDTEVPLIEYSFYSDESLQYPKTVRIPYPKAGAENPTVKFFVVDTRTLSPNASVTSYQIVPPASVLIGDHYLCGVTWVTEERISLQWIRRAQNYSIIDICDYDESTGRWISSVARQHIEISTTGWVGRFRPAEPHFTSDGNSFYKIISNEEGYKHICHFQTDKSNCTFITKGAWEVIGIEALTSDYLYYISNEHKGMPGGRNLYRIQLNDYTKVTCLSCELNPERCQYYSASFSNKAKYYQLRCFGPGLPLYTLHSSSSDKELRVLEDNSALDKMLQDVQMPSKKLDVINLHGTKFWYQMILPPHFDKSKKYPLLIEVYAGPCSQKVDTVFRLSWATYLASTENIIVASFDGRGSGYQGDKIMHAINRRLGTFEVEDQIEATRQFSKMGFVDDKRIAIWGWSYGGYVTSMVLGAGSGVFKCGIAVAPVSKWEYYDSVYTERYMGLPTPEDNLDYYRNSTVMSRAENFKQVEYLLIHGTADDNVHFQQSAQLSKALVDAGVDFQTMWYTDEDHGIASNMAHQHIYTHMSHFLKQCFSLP

For the compound `CC(C)N(N)C(=O)N1CSCC1C#N.Cl` (stereo not shown), the melting point is 148 to 150 °C (dec.).
For `N#CC1CSCN1C(=O)CN(N)C1CCN(CC(=O)Nc2ccc(Cl)cn2)CC1` (stereo not shown) [Compound No. 95], the “% Activity (antioxidant, DPPH)” value was determined as 22.06% in series [1] (Concentration 12.5 μM, 12.5 µM); 36.87% in series [1] (Concentration 25 μM, 25 µM); 44.81% in series [1] (Concentration 50 μM, 50 µM); 65.52% in series [1] (Concentration 100 μM, 100 µM). Besides, the “Glucose excursions after a 1 gm/kg glucose load” value was determined as 0.0 in series [2] (0 min); 3.9 in series [2] (10 min); 5.9 in series [2] (20 min); 7.8 in series [2] (30 min); 6.2 in series [2] (45 min); 4.1 in series [2] (60 min). Moreover, the “Glucose excursions after a 1 gm/kg glucose load” value is 2.7 in series [2] (75 min); 0.5 in series [2] (90 min); −2.8 in series [2] (120 min); −4.1 in series [2] (150 min); −3.9 in series [2] (180 min). The “AUC values mM * min of glucose excursion” value in series [2] (5 min before 1 gm/kg glucose load, Mean ± SD, P < 0.05 vs vehicle) is 413.3±134.6 mM * min and 413.3 ± 134.6a mM * min. In addition, in series [2] (nSTZ induced diabetic rats), the “effect on hyperglycemia (in words)” value was “controls hyperglycemia and brings the glucose levels to normoglycemic range”.
As to `N#CC1CSCN1C(=O)CN(N)C1CCN(CC(=O)Nc2ccc(S(N)(=O)=O)cc2)CC1` (stereo not shown) [compound 142, 3-[1-oxo-2-(1-(1-(2-oxo-2-(4-aminosulphonylphenyl)aminoethyl)piperidin-4-yl))hydrazino]ethyl-4-cyano thiazolidine, dihydrochloride], the concentration for half-maximal inhibition (IC50) at Porcine DPP-IV is 0.07 ± 0.01 µM. Moreover, the “percent change in blood glucose from basal glucose level” value (“percent change in blood glucose” below) with nOSTZ diabetic rats (0 min) was determined as 0.0 ± 0.0%; with nOSTZ diabetic rats (5 min) it was 9.79 ± 4.13%; in the series on nOSTZ diabetic rats (10 min), 29.41 ± 3.4%; in the series on nOSTZ diabetic rats (15 min), 46.51 ± 5.23%; in the series with nOSTZ diabetic rats (20 min) it was 56.51 ± 4.33%; in the series on nOSTZ diabetic rats (30 min), 77.93 ± 12.12%. Also, the “percent change in blood glucose” value in the series on nOSTZ diabetic rats (45 min) is reported as 87.25 ± 15.61%; with nOSTZ diabetic rats (60 min), 67.33 ± 11.49%; in the series on nOSTZ diabetic rats (90 min) it was 67.45 ± 9.8%; with nOSTZ diabetic rats (120 min), 31.4 ± 8.51%; in the series with nOSTZ diabetic rats (180 min), −48.05 ± 5.75%; in the series with nOSTZ diabetic rats (240 min), −58.87 ± 6.10%. For the same compound, the “percent change in blood glucose” value in the series on nOSTZ diabetic rats (360 min) is reported as −63.57 ± 4.77%. In addition, the “peak glucose levels (% from basal level)” value in the series on nOSTZ diabetic rats is reported as 87.25±15.61%. Further, in the series with nOSTZ diabetic rats, the “glucose tolerance (in words)” value is on record as “improved glucose tolerance”.
Consider `Cl.Cl.Cl.N#Cc1ccc(NC(=O)CN2CCC(N(N)CC(=O)N3CSCC3C#N)CC2)nc1` (stereo not shown) [compound 140, 3-[1-oxo-2-(1-(1-(2-oxo-2-(5-cyanopyridin-2-yl)aminoethyl)piperidin-4-yl))hydrazino]ethyl-4-cyano thiazolidine, trihydrochloride], for which, on Porcine DPP-IV (trihydrochloride), the 50% inhibitory concentration (IC50) came out at 0.13 ± 0.03 µM. Also, the “percent change in blood glucose” value came to 0.0 ± 0.0% with nOSTZ diabetic rats (0 min); 21.97 ± 1.14% in the series with nOSTZ diabetic rats (5 min); 49.11 ± 11.7% with nOSTZ diabetic rats (10 min); 64.67 ± 10.17% in the series on nOSTZ diabetic rats (15 min); 69.62 ± 12.73% with nOSTZ diabetic rats (20 min); 90.29 ± 22.93% with nOSTZ diabetic rats (30 min). In addition, the “percent change in blood glucose” value in the series on nOSTZ diabetic rats (45 min) is given as 99.19 ± 17.87%; with nOSTZ diabetic rats (60 min) it was 82.76 ± 16.22%; with nOSTZ diabetic rats (90 min), 34.3 ± 20.32%; in the series with nOSTZ diabetic rats (120 min), −21.87 ± 25.68%; in the series on nOSTZ diabetic rats (180 min), −45.71 ± 18.48%; with nOSTZ diabetic rats (240 min) it was −48.6 ± 13.58%. Also, in the series on nOSTZ diabetic rats (360 min), the “percent change in blood glucose” value is reported as −49.76 ± 10.31%. Further, the “peak glucose levels (% from basal level)” value in the series with nOSTZ diabetic rats was determined as 99.19±17.87%. Besides, in the series with nOSTZ diabetic rats, the “glucose tolerance (in words)” value was “improved glucose tolerance”.
In the case of `CCNN(CC(=O)N1CSCC1C#N)C1CCN(CC(=O)Nc2ccc(Cl)cn2)CC1` (stereo not shown) [Compound No. 101, 3-[1-oxo-2-[1-(1-(2-oxo-2-(5-chloropyridin-2-yl)aminoethyl)piperidin-4-yl)]-2 ethylhydrazino]ethyl-4-cyanothiazolidine tris-hydrochloride], the “% Activity (antioxidant, DPPH)” value in series [1] (Concentration 12.5 μM) is reported as 20.41%; in series [1] (Concentration 25 μM) it was 31.00%; in series [1] (Concentration 50 μM), 32.19%; in series [1] (Concentration 100 μM), 61.15%. Further, the half-maximal inhibitory concentration (IC50) on Porcine DPP-IV is 0.488 ± 0.017 µM.

Source of the values: patent US20040106802A1, “Novel compounds and therapeutic uses thereof” (TORRENT PHARMACEUTICALS LTD., priority 2002, published 2004).
